Results on 19 molecules are retold here after PMC6891762, “Novel Isoxazolidine and γ-Lactam Analogues of Homonucleosides” (Molecules, 2019).

Type in all cases: cell-based
Assay [1] relates to hTERT RPE-1 normal retina (non-cancerous) cells. The assay is described as follows: Cytostatic activity, normal retina cells. The note with it: concentration causing 50% decrease in cell proliferation. Here is the method: (§1) The 50% cytostatic inhibitory concentration (IC50) causing a 50% decrease in cell proliferation was determined for all isolated isoxazolidines 14 and γ-lactams 15 toward nine cancerous cell lines (Capan-1 (pancreatic adenocarcinoma), Hap1 (chronic myeloid leukemia), HCT-116 (colorectal carcinoma), NCI-H460 (lung carcinoma), DND-41 (acute lymphoblastic leukemia), HL-60 (acute myeloid leukemia), K-562 (chronic myeloid leukemia), MM.1S (multiple myeloma) and Z-138 (non-Hodgkin lymphoma)) and normal retina (non-cancerous) cells (hTERT RPE-1). Docetaxel, etoposide and stauroporine were used as the reference compounds.
(§2) All assays were performed in 96-well microtiter plates. To each well was added (5−7.5) × 10^4 tumor cells and a given amount of the test compound. The cells were allowed to proliferate at 37 °C in a humidified, CO2-controlled atmosphere. At the end of the incubation period, the cells were counted in a Coulter counter. The IC50 (50% inhibitory concentration) was defined as the concentration of the compound that inhibited cell proliferation by 50%.

Assay [2] concerns Hap1 (chronic myeloid leukemia) cells. Put plainly: Cytostatic activity, Hap1. The note with it: concentration causing 50% decrease in cell proliferation. How it is done: as §1, §2
Assay [3] relates to NCI-H460 (lung carcinoma) cells. Put plainly: Cytostatic activity, NCI-H460. The note with it: concentration causing 50% decrease in cell proliferation. Here is the method: as §1, §2
In assay [4] the test system is HCT-116 (colorectal carcinoma) cells. Put plainly: Cytostatic activity, HCT-116. The note with it: concentration causing 50% decrease in cell proliferation. Here is the method:
as §1, §2

Assay [5] has as its system Capan-1 (pancreatic adenocarcinoma) cells. Put plainly: Cytostatic activity, Capan-1. How it is done: The 50% cytostatic inhibitory concentration (IC50) causing a 50% decrease in cell proliferation was determined for all isolated isoxazolidines 14 and γ-lactams 15 toward nine cancerous cell lines (Capan-1 (pancreatic adenocarcinoma), Hap1 (chronic myeloid leukemia), HCT-116 (colorectal carcinoma), NCI-H460 (lung carcinoma), DND-41 (acute lymphoblastic leukemia), HL-60 (acute myeloid leukemia), K-562 (chronic myeloid leukemia), MM.1S (multiple myeloma) and Z-138 (non-Hodgkin lymphoma)) and normal retina (non-cancerous) cells (hTERT RPE-1).
All assays were performed in 96-well microtiter plates. To each well was added (5−7.5) × 10^4 tumor cells and a given amount of the test compound. The cells were allowed to proliferate at 37 °C in a humidified, CO2-controlled atmosphere. At the end of the incubation period, the cells were counted in a Coulter counter.

Setting [6] is: Homo sapiens, CAPAN-1, concentration causing 50% decrease in cell proliferation.
Where [7] appears, read: concentration causing 50% decrease in cell proliferation.

Structures are written as SMILES.

A word on the IC50: it is the point on the concentration scale where inhibition reaches its midpoint.

Consider `COc1cc([C@@H]2c3cc4c(cc3[C@@H](O[C@@H]3O[C@@H]5CO[C@@H](C)O[C@H]5[C@H](O)[C@H]3O)[C@H]3COC(=O)[C@H]23)OCO4)cc(OC)c1O` [Etoposide, reference compound], for which the IC50 came to 0.23 µM in assay [1] (hTERT-RPE1); 0.04 µM in assay [2] (Homo sapiens, HAP1); 1.35 µM in assay [3] (Homo sapiens, NCI-H460); 1.03 µM in assay [4] (Homo sapiens, HCT-116); 0.15 µM in assay [5] (setting [6]).

As for `CN1C(=O)[C@@H](O)C[C@@H]1Cn1cc(Cl)c(=O)[nH]c1=O` (relative stereo) [trans-15e, trans-5-Chloro-1-[(4-hydroxy-1-methyl-5-oxopyrrolidin-2-yl)methyl]pyrimidine-2,4(1H,3H)-dione], the IC50 in assay [1] (hTERT-RPE1) is above 100 µM; in assay [2] (Homo sapiens, HAP1) it was 54.5 µM; in assay [3] (Homo sapiens, NCI-H460) it was 47.7 µM; in assay [4] (Homo sapiens, HCT-116), above 100 µM; in assay [5] (setting [6]), 21.5 µM; in assay [5] (setting [7]), 18.2 µM.

For `COC(=O)[C@H]1C[C@H](Cn2ccc(=O)[nH]c2=O)N(C)O1` (relative stereo) [trans-14a, Methyl trans-3-{[2,4-dioxo-3,4–dihydropyrimidin-1(2H)-yl]methyl}-2-methylisoxazolidine-5-carboxylate], the IC50 was above 100 µM in assay [1] (hTERT-RPE1); above 100 µM in assay [2] (Homo sapiens, HAP1); 90.3 µM in assay [3] (Homo sapiens, NCI-H460); above 100 µM in assay [4] (Homo sapiens, HCT-116); 62.6 µM in assay [5] (setting [6]).

Regarding `COC(=O)[C@H]1C[C@H](Cn2cc(Cl)c(=O)[nH]c2=O)N(C)O1` (relative stereo) [trans-14e, Methyl trans-3-{[5-chloro-2,4-dioxo-3,4–dihydropyrimidin-1(2H)-yl]metyl}-2-methylisoxazolidine-5-carboxylate], the IC50 was above 100 µM in assay [1]; 42.7 µM in assay [2]; 41.9 µM in assay [3]; 43.5 µM in assay [4]; 38.5 µM in assay [5] (setting [7]).

For `CN1C(=O)[C@@H](O)C[C@@H]1Cn1cnc2c(=O)n(C)c(=O)n(C)c21` (relative stereo) [trans-15h, trans-9-[(4-Hydroxy-1-methyl-5-oxopyrrolidin-2-yl)methyl]-1,3-dimethyl-3,9-dihydro-1H-purine-2,6-dione], the IC50 in assay [1] (hTERT-RPE1) was above 100 µM; in assay [2] (Homo sapiens, HAP1), above 100 µM; in assay [3] (Homo sapiens, NCI-H460) it was 49.8 µM; in assay [4] (Homo sapiens, HCT-116) it was 45.7 µM; in assay [5] (setting [6]) it was 47.2 µM.

With `CN1C(=O)[C@H](O)C[C@@H]1Cn1cc(Cl)c(=O)[nH]c1=O` (relative stereo) [cis-15e, cis-5-Chloro-1-[(4-hydroxy-1-methyl-5-oxopyrrolidin-2-yl)methyl]pyrimidine-2,4(1H,3H)-dione], the IC50 is above 100 µM in assay [1] (hTERT-RPE1); 51.5 µM in assay [2] (Homo sapiens, HAP1); 28.6 µM in assay [3] (Homo sapiens, NCI-H460); 58.5 µM in assay [4] (Homo sapiens, HCT-116); 28 µM in assay [5] (setting [6]). Besides, the “IC50 (µM) HCT-116 Colorectal Carcinoma” value in assay [4] is recorded as “inhibited the proliferation”.

Turning to `COC(=O)[C@@H]1C[C@H](Cn2cc(I)c(=O)[nH]c2=O)N(C)O1` (relative stereo) [cis-14f, Methyl cis-3-{[5-iodo-2,4-dioxo-3,4–dihydropyrimidin-1(2H)-yl]metyl}-2-methylisoxazolidine-5-carboxylate], the IC50 was found to be 40.9 µM in assay [2], 44.6 µM in assay [3], 57.9 µM in assay [4] and 42 µM in assay [5] (setting [7]).

As to `CC(=O)O[C@@]12CO[C@@H]1C[C@H](O)[C@@]1(C)C(=O)[C@H](O)C3=C(C)[C@@H](OC(=O)[C@H](O)[C@@H](NC(=O)OC(C)(C)C)c4ccccc4)C[C@@](O)([C@@H](OC(=O)c4ccccc4)[C@H]21)C3(C)C` [Docetaxel, reference compound], the IC50 stood at 25 µM in assay [1] (hTERT-RPE1); 1.19 µM in assay [2] (Homo sapiens, HAP1); 0.89 µM in assay [3] (Homo sapiens, NCI-H460); 0.25 µM in assay [4] (Homo sapiens, HCT-116); 0.95 µM in assay [5] (setting [6]).

For `COC(=O)[C@H]1C[C@H](Cn2cnc3c(=O)n(C)c(=O)n(C)c32)N(C)O1` (relative stereo) [trans-14h, Methyl trans-3-[(1,3-dimethyl-2,6-dioxo-1,2,3,6-tetrahydro-9H-purin-9-yl)methyl]-2-methylisoxazolidine-5-carboxylate], the IC50 in assay [1] (hTERT-RPE1) was above 100 µM; in assay [2] (Homo sapiens, HAP1), 53.6 µM; in assay [3] (Homo sapiens, NCI-H460), 51.2 µM; in assay [4] (Homo sapiens, HCT-116), 60.9 µM; in assay [5] (setting [6]) it was 43.2 µM.

As for `CN1C(=O)C(O)C[C@H]1Cn1cc(Br)c(=O)[nH]c1=O` (stereo partly drawn) [cis-15d:trans-15d (53:47)], the IC50 is above 100 µM in assay [1] (hTERT-RPE1); 49.9 µM in assay [2] (Homo sapiens, HAP1); 49.4 µM in assay [3] (Homo sapiens, NCI-H460); 90 µM in assay [4] (Homo sapiens, HCT-116); 52.1 µM in assay [5] (setting [6]).

Turning to `COC(=O)[C@H]1C[C@H](Cn2cc(Br)c(=O)[nH]c2=O)N(C)O1` (relative stereo) [trans-14d, Methyl trans-3-{[5-bromo-2,4-dioxo-3,4–dihydropyrimidin-1(2H)-yl]metyl}-2-methylisoxazolidine-5-carboxylate], the IC50 in assay [1] was above 100 µM; in assay [2] it was above 100 µM; in assay [3], 76.1 µM; in assay [4] it was above 100 µM; in assay [5] (setting [7]) it was 67.8 µM.

As for `CN[C@@H]1C[C@H]2O[C@@](C)([C@@H]1OC)n1c3ccccc3c3c4c(c5c6ccccc6n2c5c31)C(=O)NC4` [Stauroporine, reference compound], the half-maximal inhibitory concentration (IC50) in assay [1] is 0.25 µM; in assay [2] it was 3.55 µM; in assay [3], 11.5 µM; in assay [4], 0.09 µM.

For `COC(=O)[C@@H]1C[C@H](Cn2cc(C)c(=O)[nH]c2=O)N(C)O1` (relative stereo) [cis-14b, Methyl cis-2-methyl-3-{[5-methyl-2,4-dioxo-3,4–dihydropyrimidin-1(2H)-yl]methyl}isoxazolidine-5-carboxylate], the IC50 in assay [1] (hTERT-RPE1) is above 100 µM; in assay [2] (Homo sapiens, HAP1), 63 µM; in assay [3] (Homo sapiens, NCI-H460) it was 60.3 µM; in assay [4] (Homo sapiens, HCT-116), above 100 µM; in assay [5] (setting [6]) it was 55.2 µM.

As to `CN1C(=O)[C@H](O)C[C@H]1CN1CCC(=O)NC1=O` [trans-15g, trans-1-[(4-Hydroxy-1-methyl-5-oxopyrrolidin-2-yl)metyl]dihydropyrimidine-2,4(1H,3H)-dione], the IC50 in assay [1] (hTERT-RPE1) is above 100 µM; in assay [2] (Homo sapiens, HAP1) it was 49.4 µM; in assay [3] (Homo sapiens, NCI-H460) it was 69.3 µM; in assay [4] (Homo sapiens, HCT-116), above 100 µM; in assay [5] (setting [6]), 46.7 µM.

On to `COC(=O)[C@H]1C[C@H](CN2CCC(=O)NC2=O)N(C)O1` (relative stereo) [trans-14g, Methyl trans-3-{[2,4-dioxotetrahydropyrimidin-1(2H)-yl]metyl}-2-methylisoxazolidine-5-carboxylate], for which the IC50 in assay [1] was above 100 µM; in assay [2], 58.1 µM; in assay [3] it was 48.6 µM; in assay [4], 61 µM; in assay [5] (setting [7]), 38.3 µM.

In the case of `COC(=O)[C@H]1C[C@H](Cn2cc(C)c(=O)[nH]c2=O)N(C)O1` (relative stereo) [trans-14b, Methyl trans-2-methyl-3-{[5-methyl-2,4-dioxo-3,4–dihydropyrimidin-1(2H)-yl]methyl}isoxazolidine-5-carboxylate], the half-maximal inhibitory concentration (IC50) in assay [1] (hTERT-RPE1) was above 100 µM; in assay [2] (Homo sapiens, HAP1), above 100 µM; in assay [3] (Homo sapiens, NCI-H460), above 100 µM; in assay [4] (Homo sapiens, HCT-116) it was above 100 µM; in assay [5] (setting [6]), 51.3 µM.

For `COC(=O)[C@@H]1C[C@H](Cn2ccc(=O)[nH]c2=O)N(C)O1` (relative stereo) [cis-14a, Methyl cis-3-{[2,4-dioxo-3,4–dihydropyrimidin-1(2H)-yl]methyl}-2-methylisoxazolidine-5-carboxylate], the IC50 in assay [1] (hTERT-RPE1) was above 100 µM; in assay [2] (Homo sapiens, HAP1), above 100 µM; in assay [3] (Homo sapiens, NCI-H460), above 100 µM; in assay [4] (Homo sapiens, HCT-116), above 100 µM; in assay [5] (setting [6]), 54.8 µM.

On to `CN1C(=O)[C@@H](O)C[C@@H]1Cn1cc(Br)c(=O)[nH]c1=O` (relative stereo) [trans-15d, trans-5-Bromo-1-[(4-hydroxy-1-methyl-5-oxopyrrolidin-2-yl)methyl]pyrimidine-2,4(1H,3H)-dione], for which the IC50 was above 100 µM in assay [1] (hTERT-RPE1); 58.5 µM in assay [2] (Homo sapiens, HAP1); 42.1 µM in assay [3] (Homo sapiens, NCI-H460); above 100 µM in assay [4] (Homo sapiens, HCT-116); 24.8 µM in assay [5] (setting [6]).

Consider `COC(=O)[C@@H]1C[C@H](Cn2cc(Cl)c(=O)[nH]c2=O)N(C)O1` (relative stereo) [cis-14e, Methyl cis-3-{[5-chloro-2,4-dioxo-3,4–dihydropyrimidin-1(2H)-yl]metyl}-2-methylisoxazolidine-5-carboxylate], for which the 50% inhibitory concentration (IC50) in assay [1] was above 100 µM; in assay [2] it was 44.2 µM; in assay [3], 48.8 µM; in assay [4] it was 26.7 µM; in assay [5] (setting [7]), 51.2 µM.
